From ChEMBL document CHEMBL1153435, “Harnessing nature's insight: design of aspartyl protease inhibitors from treatment of drug-resistant HIV to Alzheimer's disease” (J Med Chem, 2009)
*1 amine or outer side, *2 acyl side, *3 side chain or, on linkers, in order; H or OH if unused. Where a SMILES comes first, the peptide text is derived from it. [ ]: non-standard residue; d: D form. LeuΨ(S-CHOHCH2)Ala = CC(C)C[C@H](N[*:1])[C@@H](O)C[C@@H](C)C(=O)[*:2]

Tests used:
[1] = tested on: Human immunodeficiency virus 1; assay: Antiviral activity against protease inhibitor resistant HIV1 isolates; format: functional, organism-based
Protease = Protease (Human immunodeficiency virus 1, UniProt Q9YQ12); assay: Inhibition of HIV1 protease
[2] = tested on: Human immunodeficiency virus 1; assay: Antiviral activity against HIV1 assessed as inhibition of viral replication; format: functional, organism-based; conditions: for IC95: read-out: CIC95
[3] = Oral bioavailability in HIV1 infected patient at 600 mg administered as single dose; format: ADME, organism-based; conditions: human, in vivo
Beta-secretase 1 = Beta-secretase 1 (Homo sapiens, UniProt P56817); assay: Inhibition of recombinant memapsin 2
[4] = target: Protease (Human immunodeficiency virus 1) (UniProt Q9YQ12)
[5] = tested on: Human immunodeficiency virus 1; assay: Antiviral activity against laboratory HIV1 strains and primary clinical isolates
[6] = read-out: ID50 (the source's name)

Protease, sequence (Q9YQ12 whole entry): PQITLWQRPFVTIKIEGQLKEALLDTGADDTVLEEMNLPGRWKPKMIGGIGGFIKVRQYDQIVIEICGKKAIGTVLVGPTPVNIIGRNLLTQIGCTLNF
Beta-secretase 1, sequence (P56817 whole entry): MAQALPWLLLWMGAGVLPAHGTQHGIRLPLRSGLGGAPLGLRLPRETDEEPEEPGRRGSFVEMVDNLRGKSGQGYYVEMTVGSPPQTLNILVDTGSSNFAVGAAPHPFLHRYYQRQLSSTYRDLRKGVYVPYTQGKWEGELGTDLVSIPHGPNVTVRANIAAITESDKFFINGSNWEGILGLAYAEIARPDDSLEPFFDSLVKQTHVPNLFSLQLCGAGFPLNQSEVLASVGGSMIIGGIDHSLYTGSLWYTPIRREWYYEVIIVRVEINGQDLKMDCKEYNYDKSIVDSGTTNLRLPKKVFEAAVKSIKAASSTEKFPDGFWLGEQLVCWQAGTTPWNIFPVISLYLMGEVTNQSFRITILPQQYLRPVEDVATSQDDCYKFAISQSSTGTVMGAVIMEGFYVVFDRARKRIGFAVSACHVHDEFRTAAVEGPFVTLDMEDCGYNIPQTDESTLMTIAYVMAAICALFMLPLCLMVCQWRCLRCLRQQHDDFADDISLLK
Protease (Human immunodeficiency virus 1), sequence (Q9YQ12 as listed by the source): as the sequence (Q9YQ12 whole entry) above

COc1ccc(S(=O)(=O)N(CC(C)C)C[C@@H](O)[C@H](Cc2ccccc2)NC(=O)O[C@H]2CO[C@H]3OCC[C@H]32)cc1
IC50 [1]: 0.5 nM

COc1ccc(S(=O)(=O)N(CC(C)C)C[C@@H](O)[C@H](Cc2ccccc2)NC(=O)O[C@H]2COC3OCCC[C@@H]32)cc1 (single isomer, unassigned)
Ki (Protease): 2.2 nM | IC50 [2, 6]: 4.5 nM

CC(C)c1nc(CN(C)C(=O)N[C@H](C(=O)N[C@@H](Cc2ccccc2)C[C@H](O)[C@H](Cc2ccccc2)NC(=O)OCc2cncs2)C(C)C)cs1 [RITONAVIR]
bioavailability [3]: 37%

O=C(N[C@@H](Cc1ccccc1)[C@@H](O)C[C@@H](Cc1ccccc1)C(=O)N[C@H]1c2ccccc2C[C@H]1O)O[C@H]1CCOC1
IC50 (Protease): < 0.03 nM | IC95 [2]: 3 nM

O=C(N[C@@H](Cc1ccccc1)[C@@H](O)C[C@@H](Cc1ccccc1)C(=O)N[C@H]1c2ccccc2C[C@H]1O)OC1CCCC1
IC50 (Protease): 0.3 nM | IC95 [2]: 400 nM

COc1ccc(S(=O)(=O)N(CC(C)C)C[C@@H](O)[C@H](Cc2ccccc2)NC(=O)O[C@H]2CC[C@]3(CCCO3)C2)cc1
Ki (Protease): 3.7 nM | IC50 [2, 6]: 265 nM

COc1ccc(S(=O)(=O)N(CC(C)C)C[C@@H](O)[C@H](Cc2ccccc2)NC(=O)[C@@H]2CCCS(=O)(=O)C2)cc1
Ki (Protease): 1.4 nM | IC50 [2, 6]: 17 nM

CSCC[C@H](NC(=O)[C@@H](NC(=O)OC(C)(C)C)C(C)C)C(=O)N[C@@H](CC(C)C)[C@@H](O)C[C@@H](C)C(=O)N[C@H](C(=O)NCC(C)C)C(C)C
Ki (Beta-secretase 1): 0.8 nM

COc1ccc(S(=O)(=O)N(C[C@@H]2CCC(=O)N2)C[C@@H](O)[C@H](Cc2ccccc2)NC(=O)O[C@H]2CC[C@H]3OCC[C@@H]23)cc1
IC50 (Protease): 28 nM | Ki (Protease): 0.16 nM

CC(C)CN(C[C@@H](O)[C@H](Cc1ccccc1)NC(=O)O[C@H]1CO[C@H]2OCC[C@H]21)S(=O)(=O)c1ccc2c(c1)OCO2
IC50 ([2]; read-out: IC50): 1.4 nM

COc1ccc(S(=O)(=O)N(CC(C)C)C[C@@H](O)[C@H](Cc2ccccc2)NC(=O)O[C@@H]2CCOCOC2)cc1
IC50 (Protease): 5 nM

CC(C)(C)NC(=O)[C@@H]1C[C@@H]2CCCC[C@@H]2CN1C[C@@H](O)[C@H](Cc1ccccc1)NC(=O)O[C@H]1CC[C@H]2OCC[C@@H]12
IC50 (Protease): 17 nM

CC(C)(C)NC(=O)[C@@H]1C[C@@H]2CCCC[C@@H]2CN1C[C@@H](O)[C@H](Cc1ccccc1)NC(=O)O[C@H]1CO[C@H]2OCC[C@H]21
IC95 [2]: 46 nM

COc1ccc(S(=O)(=O)N(CC(C)C)C[C@@H](O)[C@H](Cc2ccccc2)NC(=O)O[C@H]2CCS(=O)(=O)C2)cc1
Ki (Protease): 1.4 nM | IC50 [2, 6]: 19 nM

CC(C)(C)NC(=O)[C@@H]1C[C@@H]2CCCC[C@@H]2CN1C[C@@H](O)[C@H](Cc1ccccc1)NC(=O)O[C@H]1CCS(=O)(=O)C1
IC50 (Protease): 76 nM | IC95 [2]: 350 nM

COc1ccc(S(=O)(=O)N(CC(C)C)C[C@@H](O)[C@H](Cc2ccccc2)NC(=O)[C@@H]2CCO[C@]3(CCCO3)C2)cc1
Ki (Protease): 3.9 nM | IC50 [2, 6]: 1200 nM

CC(C)(C)NC(=O)[C@@H]1C[C@@H]2CCCC[C@@H]2CN1C[C@@H](O)[C@H](Cc1ccccc1)NC(=O)[C@H](CC(N)=O)NC(=O)c1ccc2ccccc2n1
IC50 [2, 6]: 18 nM

CC(C)CN(C[C@@H](O)[C@H](Cc1ccccc1)NC(=O)O[C@H]1CCOC1)S(=O)(=O)c1ccc(N)cc1
Ki (Protease): 0.6 nM | IC90 [4]: 40 nM

CC(C)(C)NC(=O)[C@@H]1C[C@@H]2CCCC[C@@H]2CN1C[C@@H](O)[C@H](Cc1ccccc1)NC(=O)[C@@H](NC(=O)c1ccc2ccccc2n1)[C@H]1CCOC1
IC50 (Protease): 0.05 nM | IC95 [2]: 8 nM

CC(C)CN(C[C@@H](O)[C@H](Cc1ccccc1)NC(=O)O[C@H]1CO[C@H]2OCC[C@H]21)S(=O)(=O)c1ccc(N)cc1
IC50 ([2]; read-out: IC50): 4.1 nM | IC90 [5]: 9 nM

COc1ccc(S(=O)(=O)N(CC(C)C)C[C@@H](O)[C@H](Cc2ccccc2)NC(=O)O[C@H]2CC[C@H]3OCO[C@@H]23)cc1
IC50 (Protease): 3.8 nM | Ki (Protease): 0.11 nM

COc1ccc(S(=O)(=O)N(CC(C)C)C[C@@H](O)[C@H](Cc2ccccc2)NC(=O)O[C@H]2CO[C@@H]3OCC[C@@H]32)cc1
IC50 ([2]; read-out: IC50): 4.1 nM

COc1ccc(S(=O)(=O)N(CC(C)C)C[C@@H](O)[C@H](Cc2ccccc2)NC(=O)[C@@H]2CCC[C@]3(CCCO3)C2)cc1
Ki (Protease): 2.9 nM

CC(C)C[C@H](NC(=O)[C@H](CC(N)=O)NC(=O)[C@@H](N)C(C)C)[C@@H](O)C[C@@H](C)C(=O)N[C@@H](C)C(=O)N[C@@H](CCC(=O)O)C(=O)N[C@@H](Cc1ccccc1)C(=O)O (H-VN[LeuΨ(S-CHOHCH2)Ala]AEF-OH)
Ki (Beta-secretase 1): 6.8 nM

CC(C)(C)NC(=O)[C@@H]1C[C@@H]2CCCC[C@@H]2CN1C[C@@H](O)[C@H](Cc1ccccc1)NC(=O)O[C@H]1CCOC1
IC50 (Protease): 160 nM | IC95 [2]: 800 nM
